Laboratory results from patent US9717708B1, “Process for preparing ertapenem-containing lyophilized formulation” (DAEWOONG PHARMACEUTICAL CO., LTD., priority 2014, dated 2017).

Legend:
[1] = Purity (HPLC) before and after lyophilization and during storage, lyophilized formulation containing doripenem monohydrate; format: physicochemical; conditions: lyophilized formulations containing doripenem
Description: (§1) Hydroxypropyl β-cyclodextrin (HP-β-CD) [MS=0.65, 2.76 g (1.0 eq.)] was dissolved in distilled water (16 mL). After cooling the solution to 0˜5° C., 10 portions of ertapenem monosodium salt (1 g in total, each portion having the same amount) were sequentially added to the solution for 60 minutes, while maintaining pH 7.8 with a 2N NaOH solution. The resulting solution was sterile-filtered at 0˜5° C., filled in a vial, and then lyophilized as follows: The filled vial was located on the shelf of a lyophilizer pre-cooled to −40° C. and then cooled for 3 hours. Vacuum (80 mTorr) was applied to the shelf, which was then heated to −20° C. at the rate of 0.5° C./min. The shelf was maintained under the conditions of −20° C. and 80 mTorr for 48 hours. The shelf was heated to 10° C. at the rate of 0.1° C./min and then to 40° C. at the rate of 0.5° C./min. […]
(§2) We evaluated whether or not hydroxypropyl β-cyclodextrin can also function both as a cryoprotective agent and as a stabilizing agent in the lyophilized formulations containing carbapenem antibiotics other than ertapenem. […] The purities before the lyophilization, the purities right after the lyophilization, and the purities of the lyophilized formulations which were respectively stored at low temperature (−20° C.), at room temperature, and under the accelerated (40° C., RH75%) condition for 4 weeks were respectively measured with a HPLC. […]

[2] = Purity (HPLC) before and after lyophilization and during storage, lyophilized formulation containing meropenem trihydrate; format: physicochemical; conditions: lyophilized formulations containing meropenem
Description: as §1, §2

Structure (SMILES)	function of hydroxypropyl β-cyclodextrin as cryoprotective and stabilizing agent [1]	function of hydroxypropyl β-cyclodextrin as cryoprotective and stabilizing agent [2]
C[C@@H](O)[C@H]1C(=O)N2C(C(=O)O)=C(S[C@@H]3CN[C@H](CNS(N)(=O)=O)C3)[C@H](C)[C@H]12 [doripenem, doripenem monohydrate]	did not function as a cryoprotective agent nor as a stabilizing agent	
C[C@@H](O)[C@H]1C(=O)N2C(C(=O)O)=C(S[C@@H]3CN[C@H](C(=O)N(C)C)C3)[C@H](C)[C@H]12 [meropenem, meropenem trihydrate]		did not function as a cryoprotective agent nor as a stabilizing agent
